Target: T1, iPLA2β (Cricetulus griseus, UniProt A0A3L7I2I8)
T1 construct: (His)6; made in house; host or cells: Sf9 insect cells (baculovirus)
T1 sequence (A0A3L7I2I8 1-752 isoform A0A3L7I2I8-2): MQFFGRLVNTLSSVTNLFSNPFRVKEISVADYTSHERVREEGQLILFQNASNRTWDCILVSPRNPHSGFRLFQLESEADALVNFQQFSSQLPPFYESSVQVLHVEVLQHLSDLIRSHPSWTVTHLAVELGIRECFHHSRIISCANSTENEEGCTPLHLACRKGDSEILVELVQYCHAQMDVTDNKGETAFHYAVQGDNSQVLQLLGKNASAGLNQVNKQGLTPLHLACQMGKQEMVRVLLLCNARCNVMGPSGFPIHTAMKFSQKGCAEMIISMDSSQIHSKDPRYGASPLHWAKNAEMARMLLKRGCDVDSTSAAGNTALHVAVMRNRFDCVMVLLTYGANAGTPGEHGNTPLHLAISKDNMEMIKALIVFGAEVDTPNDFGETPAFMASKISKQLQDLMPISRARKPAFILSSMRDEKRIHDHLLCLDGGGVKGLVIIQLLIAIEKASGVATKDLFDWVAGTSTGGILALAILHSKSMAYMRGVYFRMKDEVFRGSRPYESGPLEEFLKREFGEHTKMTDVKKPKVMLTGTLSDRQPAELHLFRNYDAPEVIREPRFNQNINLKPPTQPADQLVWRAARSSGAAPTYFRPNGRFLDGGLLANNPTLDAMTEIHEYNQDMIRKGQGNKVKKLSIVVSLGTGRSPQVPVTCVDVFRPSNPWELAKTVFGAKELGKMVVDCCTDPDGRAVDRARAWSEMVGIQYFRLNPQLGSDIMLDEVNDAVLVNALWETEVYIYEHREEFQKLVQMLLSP
Experiment: Covalent acylation (autoacylation) of iPLA2β with [14C]-long chain acyl-CoAs
Type: biochemical
Method: FIG. 5—Equivalent amounts of the indicated [1-^14C]-acyl-CoA guests (5 mol %) were incorporated into host POPC (100 μM) vesicles and incubated for 1 hr at 37° C. with equal amounts of either wild-type (WT) iPLA2β(His)6 (peptide disclosed as SEQ ID NO: 4), S465A iPLA2β(His)6 (peptide disclosed as SEQ ID NO: 4), or BEL-pretreated WT iPLA2β(His)6 (peptide disclosed as SEQ ID NO: 4) enzyme as described in Experimental Procedures. Samples were resolved by SDS-PAGE (10% gel), fixed, and dried before visualization by autoradiography.
FIG. 6—Purified iPLA2β(His)6 (peptide disclosed as SEQ ID NO: 4) (2 μM) was incubated with the indicated concentrations of [1-^14C]-oleoyl-CoA present as guest in host POPC (100 μM) vesicles for 1 hr at 37° C. Samples were electrophoresed in parallel with standard amounts (0.5-10 nCi) of [^14C]-BSA of known activity (not shown). The fixed and dried gel was exposed to film and the resultant signals from the [^14C]-BSA were utilized to generate a standard curve utilizing ID software from a Kodak Imagestation to determine the incorporation of [1-^14C]-oleate into iPLA2β.
FIG. 7—Purified iPLA2β(His)6 (peptide disclosed as SEQ ID NO: 4) was incubated with [1-^14C]-oleoyl CoA (10 mol %) incorporated as guest in host POPC vesicles. N-ethylmaleimide and iodoacetamide samples were pretreated with 5 mM of either reagent for 5 min at 30° C. before addition of [1-^14C]-oleoyl-CoA. Samples were incubated with 1 N HCl, 1 N NaOH, or 2 N neutral hydroxylamine for 1 hr at 30° C. as indicated. All samples, except lane 1, were precipitated with CHCl3/MeOH and washed with 70% acetone before SDS-PAGE and autoradiography as described in Experimental Procedures.
FIG. 10—Purified iPLA2β(His)6 (peptide disclosed as SEQ ID NO: 4) was incubated with [1-^14C]-oleoyl CoA (10 mol %) incorporated as guest in host POPC vesicles in the presence of EGTA (5 mM), Ca^2+ (1 mM), CaM (3 μg), or Ca^2+-CaM for 1 h at 37° C. Samples were resolved by SDS-PAGE and the gel was soaked in Amplify fluorographic reagent, dried, and exposed to film as described in Experimental Procedures.
Covalent Modification of […] with [^14C]-long chain Acyl CoAs—Purified recombinant iPLA2β(His)6 (peptide disclosed as SEQ ID NO: 4) was incubated with POPC vesicles containing 10 mol % [1-^14C]-acyl-CoA for 1 h at 37° C. […] Chloroform/methanol precipitation of some samples was performed as described (66) utilizing 15 μg of bovine serum albumin as carrier. In tests to examine the nature of the covalent linkage between oleic acid and iPLA2β, acid (HCl), base (NaOH), and hydroxylamine were added to the indicated concentrations and the samples were incubated at 30° C. for 1 h. Bovine serum albumin (15 μg) and SDS-PAGE loading buffer were then added to each sample prior to dialysis against 50 mM Tris-HCl, pH 6.8 containing 10% glycerol and 1% SDS for 4 h. Samples were electrophoresed by SDS-PAGE, fixed (40% methanol containing 10% acetic acid), stained with Coomassie Blue R-250, incubated in Amplify fluorographic reagent, dried, and exposed to Kodak Biomax MR film for 2-5 days at −80° C.

[1-14C]-oleic acid incorporated per mole of iPLA2β (POPC vesicles, up to 5-fold molar excess of oleoyl-CoA, FIG. 6): approximately 1 mole
radiolabeling of iPLA2β, fold greater than saturated counterparts (wild-type iPLA2β, FIG. 5): 10-100 fold
Structure (SMILES): CCCCCCCC/C=C\CCCCCCCC(=O)SCCNC(=O)CCNC(=O)[C@H](O)C(C)(C)COP(=O)(O)OP(=O)(O)OC[C@H]1O[C@@H](n2cnc3c(N)ncnc32)[C@H](O)[C@@H]1OP(=O)(O)O [oleoyl-CoA]
